Assay results: BigSolDB 2.1

Cc1ccc2cc(Br)ccc2n1
solubility (mole fraction)
Conditions | in DMF | in acetone | in acetonitrile | in ethanol | in ethyl acetate | in isopropanol | in methanol | in n-propanol | in toluene | in water
278.15 K | 0.00585 | 0.00678 | 0.00648 | 0.000938 | 0.0072 | 0.00191 | 0.000232 | 0.00218 | 0.00817 | 6.88e-06
283.15 K | 0.00675 | 0.00793 | 0.00743 | 0.00112 | 0.00844 | 0.00229 | 0.000276 | 0.00261 | 0.00953 | 8.1e-06
288.15 K | 0.00765 | 0.00926 | 0.00855 | 0.00131 | 0.0101 | 0.00274 | 0.000319 | 0.00317 | 0.0111 | 9.62e-06
293.15 K | 0.00869 | 0.0108 | 0.00974 | 0.00151 | 0.0117 | 0.0032 | 0.000372 | 0.00371 | 0.0132 | 1.13e-05
298.15 K | 0.00994 | 0.0126 | 0.0112 | 0.00179 | 0.0136 | 0.00375 | 0.000444 | 0.00438 | 0.0155 | 1.33e-05
303.15 K | 0.0116 | 0.0149 | 0.0131 | 0.00213 | 0.0159 | 0.00442 | 0.000525 | 0.00513 | 0.018 | 1.54e-05
308.15 K | 0.0137 | 0.0175 | 0.0154 | 0.00249 | 0.0187 | 0.00518 | 0.000613 | 0.00593 | 0.0212 | 1.82e-05
313.15 K | 0.0161 | 0.0204 | 0.0182 | 0.00289 | 0.0218 | 0.00608 | 0.000719 | 0.00687 | 0.0248 | 2.13e-05
318.15 K | 0.0188 | 0.0237 | 0.0213 | 0.00334 | 0.0255 | 0.00703 | 0.000849 | 0.0079 | 0.0286 | 2.48e-05
323.15 K | 0.0222 | 0.0276 | 0.0253 | 0.0039 | 0.0299 | 0.00812 | 0.000998 | 0.00914 | 0.0332 | 2.89e-05
